{"source": "paper PMC5218480", "about": "(PLoS ONE, 2017)", "system": "MV-4-11 cells", "test": "Gene expression microarray analysis (Affymetrix PrimeView) and GSEA", "type": "cell-based, human", "parameters": "RFU PODN (11730768_x_at) / Fold change /veh PODN (11730768_x_at) / RFU LINC00158 (11744669_a_at) / Fold change /veh LINC00158 (11744669_a_at) / RFU DUSP10 (11751237_a_at) / Fold change /veh DUSP10 (11751237_a_at) / RFU ID3 (11757404_x_at) / Fold change /veh ID3 (11757404_x_at) / RFU PLEKHG5 (11737974_s_at) / Fold change /veh PLEKHG5 (11737974_s_at) / RFU LRRC4B (11730491_at) / Fold change /veh LRRC4B (11730491_at) / RFU GIMAP4 (11747438_a_at) / Fold change /veh GIMAP4 (11747438_a_at) / RFU KRT8 (11758183_x_at) / Fold change /veh KRT8 (11758183_x_at) / RFU CNN1 (11734310_a_at) / Fold change /veh CNN1 (11734310_a_at) / RFU VPS37D (11726825_at) / Fold change /veh VPS37D (11726825_at) / RFU C10orf10 (11716522_x_at) / Fold change /veh C10orf10 (11716522_x_at) / RFU KIR2DL2 /// KIR2DL4 /// KIR2DL5A /// KIR2DL5B /// KIR2DS1 /// KIR2DS2 /// KIR2DS3 /// KIR2DS4 /// KIR3DL3 /// KIR3DL3 /// KIR3DS1 (11738374_at) / Fold change /veh KIR2DL2 /// KIR2DL4 /// KIR2DL5A /// KIR2DL5B /// KIR2DS1 /// KIR2DS2 /// KIR2DS3 /// KIR2DS4 /// KIR3DL3 /// KIR3DL3 /// KIR3DS1 (11738374_at) / RFU C1QL1 (11718748_at) / Fold change /veh C1QL1 (11718748_at) / RFU TMPRSS4 (11747572_a_at) / Fold change /veh TMPRSS4 (11747572_a_at) / RFU HAMP (11756126_x_at) / Fold change /veh HAMP (11756126_x_at) / RFU RNFT2 (11725882_a_at) / Fold change /veh RNFT2 (11725882_a_at) / RFU NR4A2 (11747474_a_at) / Fold change /veh NR4A2 (11747474_a_at) / RFU ABCC12 (11746883_a_at) / Fold change /veh ABCC12 (11746883_a_at) / RFU TMEM136 (11760407_x_at) / Fold change /veh TMEM136 (11760407_x_at) / RFU CLDN22 /// WWC2 (11732394_at) / Fold change /veh CLDN22 /// WWC2 (11732394_at) / RFU HLA-DPB1 (11760878_x_at) / Fold change /veh HLA-DPB1 (11760878_x_at) / RFU SPINT1 (11716480_a_at) / Fold change /veh SPINT1 (11716480_a_at) / RFU GAP43 (11754022_s_at) / Fold change /veh GAP43 (11754022_s_at) / RFU A4GNT (11735810_at) / Fold change /veh A4GNT (11735810_at) / RFU PRB3 (11715151_x_at) / Fold change /veh PRB3 (11715151_x_at) / RFU TUBB4B (11761932_at) / Fold change /veh TUBB4B (11761932_at) / RFU CAPN14 (11732068_a_at) / Fold change /veh CAPN14 (11732068_a_at) / RFU TMCC2 (11721928_a_at) / Fold change /veh TMCC2 (11721928_a_at) / RFU IRGQ (11745062_a_at) / Fold change /veh IRGQ (11745062_a_at) / RFU FAM174B (11720279_a_at) / Fold change /veh FAM174B (11720279_a_at) / RFU TMPRSS4 (11748680_a_at) / Fold change /veh TMPRSS4 (11748680_a_at) / RFU FAM212B (11763350_a_at) / Fold change /veh FAM212B (11763350_a_at) / RFU PLEKHG5 (11743358_a_at) / Fold change /veh PLEKHG5 (11743358_a_at) / RFU ZSCAN30 (11745921_a_at) / Fold change /veh ZSCAN30 (11745921_a_at) / RFU CMKLR1 (11741424_a_at) / Fold change /veh CMKLR1 (11741424_a_at) / RFU LOC101060620 /// MAPK8IP1 (11723275_at) / Fold change /veh LOC101060620 /// MAPK8IP1 (11723275_at) / RFU SPTSSB (11747773_x_at) / Fold change /veh SPTSSB (11747773_x_at) / RFU PRSS12 (11739890_at) / Fold change /veh PRSS12 (11739890_at) / RFU BIN1 (11741810_x_at) / Fold change /veh BIN1 (11741810_x_at) / RFU WNT11 (11732464_a_at) / Fold change /veh WNT11 (11732464_a_at) / RFU C10orf10 (11716521_a_at) / Fold change /veh C10orf10 (11716521_a_at) / RFU C5orf56 (11738089_at) / Fold change /veh C5orf56 (11738089_at) / RFU CYB561 (11721691_x_at) / Fold change /veh CYB561 (11721691_x_at) / RFU ANKRD19P (11752326_a_at) / Fold change /veh ANKRD19P (11752326_a_at) / RFU OR2T12 /// OR2T33 /// OR2T8 (11738714_s_at) / Fold change /veh OR2T12 /// OR2T33 /// OR2T8 (11738714_s_at) / RFU VCAN (11748164_a_at) / Fold change /veh VCAN (11748164_a_at) / RFU JSRP1 (11732532_at) / Fold change /veh JSRP1 (11732532_at) / RFU KRTAP10-11 (11738290_x_at) / Fold change /veh KRTAP10-11 (11738290_x_at) / RFU MYO3A (11730013_a_at) / Fold change /veh MYO3A (11730013_a_at) / RFU EBF3 (11725865_a_at) / Fold change /veh EBF3 (11725865_a_at) / RFU CAMK2N1 (11719241_x_at) / Fold change /veh CAMK2N1 (11719241_x_at) / RFU C5orf56 (11738088_a_at) / Fold change /veh C5orf56 (11738088_a_at) / RFU OLFML3 (11715873_a_at) / Fold change /veh OLFML3 (11715873_a_at) / RFU LOC100653217 /// NTM (11731650_a_at) / Fold change /veh LOC100653217 /// NTM (11731650_a_at) / RFU MAPK11 (11762145_a_at) / Fold change /veh MAPK11 (11762145_a_at) / RFU FIZ1 (11724087_x_at) / Fold change /veh FIZ1 (11724087_x_at) / RFU OASL (11726364_x_at) / Fold change /veh OASL (11726364_x_at) / RFU SOX15 (11748057_x_at) / Fold change /veh SOX15 (11748057_x_at) / RFU CD79A (11719716_a_at) / Fold change /veh CD79A (11719716_a_at) / RFU HIST1H1D (11736915_at) / Fold change /veh HIST1H1D (11736915_at) / RFU CASKIN2 (11723855_a_at) / Fold change /veh CASKIN2 (11723855_a_at) / RFU LOC730098 (11760151_x_at) / Fold change /veh LOC730098 (11760151_x_at) / RFU OR4N2 (11742367_at) / Fold change /veh OR4N2 (11742367_at) / RFU PRRT2 (11749266_a_at) / Fold change /veh PRRT2 (11749266_a_at) / RFU SNX32 (11753110_a_at) / Fold change /veh SNX32 (11753110_a_at) / RFU CDHR5 (11726645_a_at) / Fold change /veh CDHR5 (11726645_a_at) / RFU RCAN1 (11760418_a_at) / Fold change /veh RCAN1 (11760418_a_at) / RFU FAM167A (11723789_a_at) / Fold change /veh FAM167A (11723789_a_at) / RFU FAM26E (11764081_at) / Fold change /veh FAM26E (11764081_at) / RFU ISYNA1 (11749810_s_at) / Fold change /veh ISYNA1 (11749810_s_at) / RFU ACY1 (11761880_at) / Fold change /veh ACY1 (11761880_at) / RFU 11764098_at / Fold change /veh 11764098_at / RFU SAMD14 (11745864_x_at) / Fold change /veh SAMD14 (11745864_x_at) / RFU NPB (11741838_a_at) / Fold change /veh NPB (11741838_a_at) / RFU TMPRSS6 (11731388_a_at) / Fold change /veh TMPRSS6 (11731388_a_at) / RFU KRTAP10-2 (11738614_at) / Fold change /veh KRTAP10-2 (11738614_at) / RFU ARHGAP8 /// PRR5-ARHGAP8 (11727945_x_at) / Fold change /veh ARHGAP8 /// PRR5-ARHGAP8 (11727945_x_at) / RFU KRTAP5-7 /// NADSYN1 (11734609_at) / Fold change /veh KRTAP5-7 /// NADSYN1 (11734609_at) / RFU RASL12 (11751679_a_at) / Fold change /veh RASL12 (11751679_a_at) / RFU CDKN2B (11736163_a_at) / Fold change /veh CDKN2B (11736163_a_at) / RFU PRF1 (11729649_at) / Fold change /veh PRF1 (11729649_at) / RFU, ZNF638 /// ZNF638-IT1 / Fold change vs veh, ZNF638 /// ZNF638-IT1 / RFU, PANK3 / Fold change vs veh, PANK3 / RFU, SH3YL1 / Fold change vs veh, SH3YL1 / RFU, ZEB2 / Fold change vs veh, ZEB2 / RFU, NRIP1 / Fold change vs veh, NRIP1 / RFU, PTTG1IP / Fold change vs veh, PTTG1IP / RFU, CAPN2 / Fold change vs veh, CAPN2 / RFU, MED14 / Fold change vs veh, MED14 / RFU, SNORA58 / Fold change vs veh, SNORA58 / RFU, C1orf63 / Fold change vs veh, C1orf63 / RFU, LRRFIP1 / Fold change vs veh, LRRFIP1 / RFU, NDUFAF7 / Fold change vs veh, NDUFAF7 / RFU, SLC12A2 / Fold change vs veh, SLC12A2 / RFU, IBTK / Fold change vs veh, IBTK / RFU, ESF1 / Fold change vs veh, ESF1 / Fold change vs veh, TMEM50B / RFU, TAOK1 / Fold change vs veh, TAOK1 / RFU, ACBD3 / Fold change vs veh, ACBD3 / RFU, TMA16 / Fold change vs veh, TMA16 / RFU, RWDD3 / Fold change vs veh, RWDD3 / RFU, BCAT1 / Fold change vs veh, BCAT1 / RFU, EDEM3 / Fold change vs veh, EDEM3 / RFU, TMEM33 / Fold change vs veh, TMEM33 / RFU, WDR75 / Fold change vs veh, WDR75 / RFU, AHCTF1 / Fold change vs veh, AHCTF1 / RFU, TFRC / Fold change vs veh, TFRC / RFU, ZDHHC17 / Fold change vs veh, ZDHHC17 / RFU, NOM1 / Fold change vs veh, NOM1 / RFU, ARL8B / Fold change vs veh, ARL8B / RFU, ZBTB11 / Fold change vs veh, ZBTB11 / RFU, TAMM41 / Fold change vs veh, TAMM41 / RFU, KIAA1704 /// LOC100996395 / Fold change vs veh, KIAA1704 /// LOC100996395 / RFU, ING1 / Fold change vs veh, ING1 / RFU, TRMT61B / Fold change vs veh, TRMT61B / RFU, FUBP3 / Fold change vs veh, FUBP3 / RFU, TP53 / Fold change vs veh, TP53 / RFU, TNKS2 / Fold change vs veh, TNKS2 / RFU, ZFP14 / Fold change vs veh, ZFP14 / RFU, ACTR2 / Fold change vs veh, ACTR2 / RFU, PPP3R1 / Fold change vs veh, PPP3R1 / RFU, PIK3R1 / Fold change vs veh, PIK3R1 / RFU, HNRNPA1 / Fold change vs veh, HNRNPA1 / RFU, RNF170 / Fold change vs veh, RNF170 / RFU, ZNF28 / Fold change vs veh, ZNF28 / RFU, RNGTT / Fold change vs veh, RNGTT / RFU, OGT / Fold change vs veh, OGT / RFU, BRD1 / Fold change vs veh, BRD1 / RFU, MARS / Fold change vs veh, MARS / RFU, ZNF655 / Fold change vs veh, ZNF655 / RFU, FAHD1 / Fold change vs veh, FAHD1 / RFU, BDP1 / Fold change vs veh, BDP1 / RFU, LRRCC1 / Fold change vs veh, LRRCC1 / RFU, ARID1A / Fold change vs veh, ARID1A / RFU, ZNF146 / Fold change vs veh, ZNF146 / RFU, ZNF330 / Fold change vs veh, ZNF330 / RFU, GPN3 / Fold change vs veh, GPN3 / RFU, C9orf123 / Fold change vs veh, C9orf123 / RFU, N4BP2L2 / Fold change vs veh, N4BP2L2 / RFU, ARFIP1 / Fold change vs veh, ARFIP1 / RFU, FAM179B / Fold change vs veh, FAM179B / RFU, BCL10 / Fold change vs veh, BCL10 / RFU, UHRF1BP1L / Fold change vs veh, UHRF1BP1L / RFU, BET1 / Fold change vs veh, BET1 / RFU, CNOT2 / Fold change vs veh, CNOT2 / RFU, ZNF268 / Fold change vs veh, ZNF268 / Fold change vs veh, ZNF507 / RFU, DGCR2 / Fold change vs veh, DGCR2 / RFU, WDSUB1 / Fold change vs veh, WDSUB1 / Fold change vs veh, HSP90B1 /// MIR3652 / RFU, ADSS / Fold change vs veh, ADSS / RFU, GK / Fold change vs veh, GK / RFU, ZNF148 / Fold change vs veh, ZNF148 / RFU, TAF9 / Fold change vs veh, TAF9 / RFU, SLC1A5 / Fold change vs veh, SLC1A5 / RFU, SLMO2 / Fold change vs veh, SLMO2 / RFU, ABCC4 / Fold change vs veh, ABCC4 / RFU, LOC101060439 /// RAP1B / Fold change vs veh, LOC101060439 /// RAP1B / RFU, RFX7 / Fold change vs veh, RFX7 / RFU, GTPBP10 / Fold change vs veh, GTPBP10 / RFU, CNEP1R1 / Fold change vs veh, CNEP1R1 / RFU, BIVM-ERCC5 /// ERCC5 / Fold change vs veh, BIVM-ERCC5 /// ERCC5 / RFU, ILF3 / Fold change vs veh, ILF3 / RFU 11762660_at / Fold change /veh 11762660_at / RFU VCAN (11757783_s_at) / Fold change /veh VCAN (11757783_s_at) / RFU DDX43 (11728927_at) / Fold change /veh DDX43 (11728927_at) / RFU KRT8 (11758188_x_at) / Fold change /veh KRT8 (11758188_x_at) / RFU NKD1 (11759106_at) / Fold change /veh NKD1 (11759106_at) / RFU SRD5A1 (11742802_a_at) / Fold change /veh SRD5A1 (11742802_a_at) / RFU TPSAB1 /// TPSB2 (11721975_s_at) / Fold change /veh TPSAB1 /// TPSB2 (11721975_s_at) / RFU GSTM3 (11746129_a_at) / Fold change /veh GSTM3 (11746129_a_at) / RFU IL23R (11737362_x_at) / Fold change /veh IL23R (11737362_x_at) / RFU TMEM51 (11727254_a_at) / Fold change /veh TMEM51 (11727254_a_at) / RFU PIWIL2 (11732686_x_at) / Fold change /veh PIWIL2 (11732686_x_at) / RFU ORM1 (11744905_x_at) / Fold change /veh ORM1 (11744905_x_at) / RFU CCDC152 (11743942_at) / Fold change /veh CCDC152 (11743942_at) / RFU ECM1 (11717891_a_at) / Fold change /veh ECM1 (11717891_a_at) / RFU IL23R (11748794_a_at) / Fold change /veh IL23R (11748794_a_at) / RFU TNFAIP8L3 (11732012_x_at) / Fold change /veh TNFAIP8L3 (11732012_x_at) / RFU MBOAT4 (11741988_at) / Fold change /veh MBOAT4 (11741988_at) / RFU 11764193_at / Fold change /veh 11764193_at / RFU TMEM53 (11763286_at) / Fold change /veh TMEM53 (11763286_at) / RFU MAGEB2 (11727129_at) / Fold change /veh MAGEB2 (11727129_at) / RFU TMEM200A (11744735_a_at) / Fold change /veh TMEM200A (11744735_a_at) / RFU CCDC152 (11751479_a_at) / Fold change /veh CCDC152 (11751479_a_at) / RFU FAM211A (11726209_a_at) / Fold change /veh FAM211A (11726209_a_at) / RFU RGS16 (11746705_a_at) / Fold change /veh RGS16 (11746705_a_at) / RFU VCAN (11755009_s_at) / Fold change /veh VCAN (11755009_s_at) / RFU RHOB (11743442_s_at) / Fold change /veh RHOB (11743442_s_at) / RFU RGS16 (11720943_a_at) / Fold change /veh RGS16 (11720943_a_at) / RFU RGS16 (11720944_at) / Fold change /veh RGS16 (11720944_at) / RFU, VPS4B / Fold change vs veh, VPS4B / RFU, CREB1 / Fold change vs veh, CREB1 / RFU, DNAJC13 / Fold change vs veh, DNAJC13 / RFU, GNAQ / Fold change vs veh, GNAQ / RFU, CDK5R1 / Fold change vs veh, CDK5R1 / RFU, ZRANB3 / Fold change vs veh, ZRANB3 / RFU, CUL4A / Fold change vs veh, CUL4A / RFU, CCNY / Fold change vs veh, CCNY / RFU, UFL1 / Fold change vs veh, UFL1 / RFU, COG3 / Fold change vs veh, COG3 / RFU, DIAPH2 / Fold change vs veh, DIAPH2 / RFU, SKA2 / Fold change vs veh, SKA2 / RFU, AFF3 / Fold change vs veh, AFF3 / RFU, LMF1 / Fold change vs veh, LMF1 / RFU, IPO11 / Fold change vs veh, IPO11 / RFU, DFFB / Fold change vs veh, DFFB / RFU, FOXP1 / Fold change vs veh, FOXP1 / RFU, CARD8 / Fold change vs veh, CARD8 / RFU, STRN3 / Fold change vs veh, STRN3 / RFU, ADK / Fold change vs veh, ADK / RFU, RASSF2 / Fold change vs veh, RASSF2 / RFU, WIPF1 / Fold change vs veh, WIPF1 / RFU, LARP1B / Fold change vs veh, LARP1B / RFU, RASA1 / Fold change vs veh, RASA1 / RFU, RB1 / Fold change vs veh, RB1 / RFU, PPFIA1 / Fold change vs veh, PPFIA1 / RFU, MAT2A / Fold change vs veh, MAT2A / RFU, CCT5 / Fold change vs veh, CCT5 / RFU, WDR92 / Fold change vs veh, WDR92 / RFU, CUX1 / Fold change vs veh, CUX1 / RFU, TTC7A / Fold change vs veh, TTC7A / RFU, TMEM135 / Fold change vs veh, TMEM135 / RFU, DEPTOR / Fold change vs veh, DEPTOR / RFU, CPM / Fold change vs veh, CPM / RFU, DNAJB6 / Fold change vs veh, DNAJB6 / RFU, CACNA2D3 / Fold change vs veh, CACNA2D3 / RFU, DTX4 / Fold change vs veh, DTX4 / RFU, TFCP2 / Fold change vs veh, TFCP2 / RFU, GMCL1 /// GMCL1P1 / Fold change vs veh, GMCL1 /// GMCL1P1 / RFU, AEBP2 / Fold change vs veh, AEBP2 / RFU, SNHG1 /// SNORD22 /// SNORD25 /// SNORD26 /// SNORD27 /// SNORD28 /// SNORD29 /// SNORD31 / Fold change vs veh, SNHG1 /// SNORD22 /// SNORD25 /// SNORD26 /// SNORD27 /// SNORD28 /// SNORD29 /// SNORD31 / Fold change (Aza/veh), C12orf56 (ProbeSet 11735607_a_at) / Fold change (ACY-1035/veh), C12orf56 (ProbeSet 11735607_a_at) / Fold change (Aza/veh), FGFR1OP (ProbeSet 11751329_s_at) / Fold change (ACY-1035/veh), FGFR1OP (ProbeSet 11751329_s_at) / Fold change (Aza/veh), VPS36 (ProbeSet 11739960_a_at) / Fold change (ACY-1035/veh), VPS36 (ProbeSet 11739960_a_at) / RFU SYPL1 (11715823_x_at) / Fold change /veh SYPL1 (11715823_x_at) / RFU IGFBP7 (11715501_s_at) / Fold change /veh IGFBP7 (11715501_s_at) / RFU REEP3 (11722064_at) / Fold change /veh REEP3 (11722064_at) / RFU IGLL1 (11728026_x_at) / Fold change /veh IGLL1 (11728026_x_at): dose or concentration left out as unconfirmed", "conditions": "MV-4-11 cells, 48 hours", "data": [{"smiles": "Nc1ncn([C@@H]2O[C@H](CO)[C@@H](O)[C@H]2O)c(=O)n1", "note": "[azacitidine]", "values": [{"measurement": "RFU IRGQ (11745062_a_at)", "result": 24.06, "unit": "RFU"}]}]}
